{"source": "patent US20090011950A1", "about": "“METHOD FOR DETECTING ORAL SQUAMOUS-CELL CARCINOMA AND METHOD FOR SUPPRESSING THE SAME” (priority 2007, published 2009)", "key": {"[1]": {"system": "PRTFDC1 gene expression in oral squamous-cell carcinoma cell lines not expressing the PRTFDC1 gene", "assay": "RT-PCR of PRTFDC1 gene expression after treatment with demethylating reagent or deacetylation inhibitory agent", "type": "cell-based", "conditions": "oral squamous-cell carcinoma cells (NA, HSC-2, ZA)", "protocol": "(d) Oral squamous-cell carcinoma cells (NA, HSC-2, and ZA) were treated (+) or not treated (−) with 5-aza-dCyd ([…]) for 5 days or with TSA ([…]) for 24 hours. The results of RT-PCR analysis on the PRTFDC1 gene in the oral squamous-cell carcinoma cells are shown.\nTo examine the expression levels of the 6 above genes (the PRTFDC1 gene, the e10orf6 gene, the THNSL1 gene, the GPR158 gene, the MYO3A gene, and the GAD2 gene), 18 types of oral squamous-cell carcinoma cell line and normal oral epithelium cells were subjected to reverse transcriptase (RT)-PCR. Specifically, a single-chain cDNA was synthesized from the RNA extracted from each cultured cell line using the SuperScript First-Strand Synthesis System (Invitrogen). PCR was then performed using primer sequences listed in Table 4 (supplementary Table 1). Moreover, a glyceraldehyde-3-phosphate dehydrogenase (GAPDH) gene was used as a control. As a result, complete disappearance of PRTFDC1 mRNA expression could be confirmed in 8 cell lines in which homozygous deletion of chromosomal region 10p12 should not have taken place, as in the case of HSC-6 cells (FIG. 2c). […] Such disappearance of PRTFDC1 mRNA expression in the oral squamous-cell carcinoma cell lines may be due to a mechanism other than genomic deletion, such as an epigenetic phenomenon.\nTo examine if the suppressed expression of the PRTFDC1 gene was due to DNA methylation, oral squamous-cell carcinoma cell lines not expressing the PRTFDC1 gene were treated using a 1 μM or 5 μM demethylating reagent 5—aza—dCyd for 5 days and/or using deacetylation inhibitory agent TSA (100 ng/ml) for 24 hours. RNAs were extracted from these cells and then PRTFDC1 gene expression was examined by RT-PCR (FIG. 2d)."}, "[2]": {"system": "CpG islands of the PRTFDC1 gene", "assay": "Demethylation of CpG islands by culturing oral squamous-cell carcinoma cells with demethylating reagent", "type": "cell-based", "conditions": "oral squamous-cell carcinoma cells cultured in the presence of the reagent"}}}
{"smiles": "CC(/C=C/C(=O)NO)=C\\[C@@H](C)C(=O)c1ccc(N(C)C)cc1", "note": "[TSA]", "values": [{"measurement": "PRTFDC1 gene expression (RT-PCR)", "setting": "[1]; TSA 100 ng/ml for 24 hours", "value": "no differences"}]}
{"smiles": "Nc1ncn([C@H]2C[C@H](O)[C@@H](CO)O2)c(=O)n1", "note": "[5-aza-dCyd, 5-azadeoxycytidine]", "values": [{"measurement": "PRTFDC1 gene expression (RT-PCR)", "setting": "[1]; 5-aza-dCyd 1 μM or 5 μM for 5 days", "value": "recovers its gene expression"}, {"measurement": "PRTFDC1 gene expression (RT-PCR)", "setting": "[1]; 5-aza-dCyd 1 μM or 5 μM for 5 days, listed as 5-azadeoxycytidine", "value": "possible to recover the expression level"}, {"measurement": "demethylation of CpG islands", "setting": "[2]", "value": "possible to demethylate"}]}
